Source: patent US20200255828A1, “METHODS AND COMPOSITIONS FOR ALTERING FUNCTION AND STRUCTURE OF CHROMATIN LOOPS AND/OR DOMAINS” (THE BROAD INSTITUTE, INC., priority 2017, published 2020)

System: HCT-116 RAD21-mAC cells
Assay: In situ Hi-C: APA for cohesin-independent links between superenhancers
Format: cell-based, human
From the text: Applicants first annotated loops in our maps for auxin-treated RAD21-mAC cells using default HiCCUPS parameters for 5, 10, and 25 kb resolutions (Durand et al., 2016b; Rao et al., 2014) with the additional requirement that the peak pixel show […] 4.5-fold enrichment over local expected (in order to remove as many false positives as possible due to rearrangements and assembly issues, see above). Using this procedure, Applicants annotated 81 loops in treated RAD21-mAC cells. […] The false discovery rate for HiCCUPS is much higher in treated cells because the number of true positives is dramatically lower. […] Applicants also noticed that the anchors involved in these 15 loops were often forming long-range loops at distances of tens of megabases and hundreds of megabases. Applicants reasoned that HiCCUPS using default parameters for loop detection was missing many of these extremely long-range loops because of the extra stringency of the HiCCUPS lambda chunking procedure for multiple hypothesis testing for pixels with low counts (i.e. pixels far off the diagonal).
More specifically, Applicants annotated loops by running HiCCUPS at 50 and 100 kb resolutions with the following parameters: p=2,1; w=4,2; fdr=10%, 10%. Applicants additionally filtered loops that were within 5 Mb of the diagonal, had less than a 2-fold observed/expected for any of the local expected, and had fewer than 3 pixels clustered into the peak pixels (see section VI.a.5 of Rao et al., 2014). This annotation yielded 88 loops. […] Combining these 46 loops with the 15 loops annotated with high resolution HiCCUPS, Applicants obtained a final curated list of 61 intrachromosomal cohesin-independent loops.
To annotate these interchromosomal links between pairs of cohesin-independent loop anchors, Applicants used HiCCUPS to calculate local enrichments at 100 kb resolution for all possible interchromosomal pairs of cohesin-independent loop anchors. Applicants then identified enriched focal interchromosomal interactions by filtering for links that were enriched at least 5.5-fold over local background (empirically chosen to ensure a <10% false discovery rate). Using this procedure, Applicants identified 203 interchromosomal cohesin-independent links. This likely underestimates the true number of interchromosomal cohesin-independent links, as evidenced by FIG. SA.
Applicants analyzed the change in strength of cohesin-independent links after auxin treatment by using APA at 100 kb resolution.
Applicants also analyzed induction of cohesin-independent links across an auxin treatment and withdrawal time course. This analysis was performed as above with the cohesin-associated loops and loop domains, but at 100 kb resolution instead of 10 kb resolution and for both our 61 intrachromosomal links and our 203 interchromosomal links. […] Similar results were seen upon performing the time course APA at 100 kb resolution using all intrachromosomal pairs of the 47 superenhancer overlapping anchors in the 88-loop automated list from above (FIG. 11E).

`O=C(O)Cc1c[nH]c2ccccc12` [auxin, indole-3-acetic acid] was tested, and the “strengthening of cohesin-independent links after auxin treatment” value (APA at 100 kb resolution, intra and interchromosomal) was ~2 fold, the “intrachromosomal APA score of cohesin-independent links, treated” value (automatedly generated list, untreated 1.69) was 2.75 and the “interchromosomal APA score of cohesin-independent links, treated” value (automatedly generated list, untreated 2.29) was 3.64. The “intrachromosomal APA score of cohesin-independent links, treated” value (manually curated list of 61 links, untreated 2.32) was 4.02 and the “interchromosomal APA score of cohesin-independent links, treated” value (manually curated list of 203 links, untreated 3.02) was 7.02.
